Results published in US10695396B2, “Malignant tumor target peptide” (NATIONAL INSTITUTE OF ADVANCED INDUSTRIAL SCIENCE AND …, priority 2016, dated 2020).
Like-named read-outs stand apart in the source and are kept apart here. Square brackets hold non-standard residues; d marks the D form. Peptide text beside a SMILES is read from it.

How the values were obtained:
[1] = solubility and stability of IF7 (dosage form observations); format: physicochemical
Protocol: That is, IF7 peptide is protease sensitive and is susceptible to degradation. Indeed, in an experiment including intravenous administration of A488-IF7 to healthy mouse, the fluorescence signal of peripheral blood almost disappeared in about 1 hour (FIG. 5). […] In addition, IF7 has high hydrophobicity and causes difficulty in dosage form such as the need for addition of a surfactant after dissolution in DMSO, in an attempt to avoid precipitation when a compound bound with an anticancer drug is intravenously administered.

Anxa1 = molecular target: T1, Anxa1 (Homo sapiens, UniProt P04083); assay: intermolecular interaction with Anxa1 measured by the QCM method; format: binding
T1 construct: human recombinant Anxa1 protein consisting of 346 amino acid residues; purchased ATGen Corporation (Seongnam-si, South Korea)
T1 sequence (P04083 1-346): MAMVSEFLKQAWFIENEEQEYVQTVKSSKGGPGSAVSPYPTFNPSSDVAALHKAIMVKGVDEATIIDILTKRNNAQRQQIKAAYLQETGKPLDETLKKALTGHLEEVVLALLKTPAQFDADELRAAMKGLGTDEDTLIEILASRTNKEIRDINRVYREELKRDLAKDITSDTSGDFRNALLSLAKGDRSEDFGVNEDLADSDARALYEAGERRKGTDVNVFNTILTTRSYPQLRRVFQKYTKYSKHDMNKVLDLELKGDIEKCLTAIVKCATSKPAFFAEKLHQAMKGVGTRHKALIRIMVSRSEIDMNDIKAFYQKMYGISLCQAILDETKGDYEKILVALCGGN
Protocol: As for the peptides of the sequences of LRFPTVL (SEQ ID NO: 13), SPTSLLF (SEQ ID NO: 14), MPTLTFR (SEQ ID NO: 15) and LLSWPSA (SEQ ID NO: 17) with high emergence frequency besides the TIT7 sequence (SEQ ID NO: 12) described in Example 1, similar to the dTIT7 peptide, peptides (dLRF7, dSPT7, dMPT7 and dLLS7 peptides) composed of D-form amino acids were synthesized and the intermolecular interaction with Anxa1 was measured for each of them by the following method.
The sensor chip was washed twice with piranha solution for 5 min and then immersed overnight in a solution of 0.9 mM hydroxy-EG3-undecanethiol (Dojindo) and 0.1 mM amino-EG6-undecanethiol (Dojindo). After washing with water, the chip was treated with 1 mM GMBS (Dojindo) and incubated at room temperature for 1 hr. After washing away the remaining GMBS, 1 mM peptide solution was added onto the chip and the chip was incubated for 30 min. The peptide-bound sensor chip was placed in a QCM apparatus (Single-Q, ASONE), and 0.5 ml of PBS was added to the well. Various doses of Anxa1 were injected into the reaction chamber and the binding affinity (kd value) for each peptide was determined.

[2] = QCM, peptide-bound sensor chip, various doses of Anxa1, read-out: kd value

Row | SMILES | Kd (Anxa1; [2]) | further results
1 | CC[C@H](C)[C@H](N)C(=O)N[C@@H](Cc1ccccc1)C(=O)N[C@@H](CC(C)C)C(=O)N[C@@H](CC(C)C)C(=O)N[C@@H](Cc1c[nH]c2ccccc12)C(=O)N[C@@H](CCC(N)=O)C(=O)N[C@@H](CCCNC(=N)N)C(=O)O [IF7, IFLLWQR] (H-IFLLWQR-OH; N-terminus and C-terminus assumed) |  | solubility [1]: poor solubility; stability ([1]; protease sensitivity): low stability
2 | CC(C)C[C@@H](N)C(=O)N[C@H](CC(C)C)C(=O)N[C@H](CO)C(=O)N[C@H](Cc1c[nH]c2ccccc12)C(=O)N1CCC[C@@H]1C(=O)N[C@H](CO)C(=O)N[C@H](C)C(=O)O [dLLS7, L[D] L[D] S[D] W[D] P[D] S[D] A[D]] (H-[dL][dL][dS][dW][dP][dS][dA]-OH; N-terminus and C-terminus assumed) | 54.2 nM | 
3 | CC(C)C[C@@H](N)C(=O)N[C@H](CCCNC(=N)N)C(=O)N[C@H](Cc1ccccc1)C(=O)N1CCC[C@@H]1C(=O)N[C@@H](C(=O)N[C@@H](C(=O)N[C@H](CC(C)C)C(=O)O)C(C)C)[C@H](C)O [dLRF7, L[D] R[D] F[D] P[D] T[D] V[D] L[D]] (H-[dL][dR][dF][dP][dT][dV][dL]-OH; N-terminus and C-terminus assumed) | 31.2 nM | 
4 | CC[C@@H](C)[C@@H](NC(=O)[C@H](N)[C@H](C)O)C(=O)N[C@@H](C(=O)N[C@H](Cc1c[nH]c2ccccc12)C(=O)N1CCC[C@@H]1C(=O)N[C@@H](C(=O)N[C@H](CCSC)C(=O)O)[C@H](C)O)[C@H](C)O [dTIT7, T[D] I[D] T[D] W[D] P[D] T[D] M[D]] |  | Kd (Anxa1; QCM method, dTIT7 and Anxa1, read-out: dissociation constant (Kd value)): 45.7 nM

The next lines start with results.

Row | Kd (Anxa1; [2]) | SMILES | further results
5 | 298 nM | CSCC[C@@H](N)C(=O)N1CCC[C@@H]1C(=O)N[C@@H](C(=O)N[C@H](CC(C)C)C(=O)N[C@@H](C(=O)N[C@H](Cc1ccccc1)C(=O)N[C@H](CCCNC(=N)N)C(=O)O)[C@H](C)O)[C@H](C)O [dMPT7, M[D] P[D] T[D] L[D] T[D] F[D] R[D]] (H-[dM][dP][dT][dL][dT][dF][dR]-OH; N-terminus and C-terminus assumed) | 
6 | 90.3 nM | CC(C)C[C@@H](NC(=O)[C@@H](CC(C)C)NC(=O)[C@@H](CO)NC(=O)[C@H](NC(=O)[C@H]1CCCN1C(=O)[C@H](N)CO)[C@H](C)O)C(=O)N[C@H](Cc1ccccc1)C(=O)O [dSPT7, S[D] P[D] T[D] S[D] L[D] L[D] F[D]] (H-[dS][dP][dT][dS][dL][dL][dF]-OH; N-terminus and C-terminus assumed) | 
